Experimental data taken from ChEMBL document CHEMBL5321279 (J Med Chem, 2023).
Active and inactive are the calls of the source. The calls are words filed in the database; no cut-off is given here.

What was measured:
SARS-CoV-2 [1] = experiment: Antiviral activity against […]-fused SARS-CoV-2 infected in human NHBE-T cells assessed as reduction in cell viability incubated for 1 day by Nano-Glo reagent based analysis; format: functional, organism-based; conditions: Severe acute respiratory syndrome coronavirus 2, NHBE-T, 24 h
SARS-CoV-2 [2] = experiment: Antiviral activity against SARS-CoV-2 Omicron BA.2.12.1 infected in human A549-hACE2-TMPRSS2 cells assessed as reduction in viral replication pre-incubated with compound followed by viral infection measured after 72 hrs by ELISA assay; format: functional, organism-based; conditions: Severe acute respiratory syndrome coronavirus 2, Omicron BA.2.12.1, A549-hACE2-TMPRSS2
[3] = Cytotoxicity against human A549-ACE2 cells assessed as reduction in cell growth measured after 48 hrs by CellTiter-Glo assay; format: toxicity, cell-based; conditions: for CC50 at 48 h: A549-ACE2 cells
[4] = Cytotoxicity against human NHBE-T cells assessed as reduction in cell growth measured after 5 days by CellTiter-Glo assay; format: toxicity, cell-based; conditions: NHBE-T cells, time 5 day
SARS-CoV-2 [5] = experiment: Antiviral activity against SARS-CoV-2 Delta (B.1.617.2) infected in human A549-hACE2-TMPRSS2 cells assessed as reduction in viral replication pre-incubated with compound followed by viral infection measured after 48 hrs by ELISA assay; format: functional, organism-based; conditions: Severe acute respiratory syndrome coronavirus 2, Delta (B.1.617.2)
SARS-CoV-2 [6] = experiment: Antiviral activity against SARS-CoV-2 Omicron BQ1.1 infected in human A549-hACE2-TMPRSS2 cells assessed as fold reduction in viral replication pre-incubated with compound followed by viral infection measured after 72 hrs by ELISA assay relative to SARS-CoV-2 WA1; format: functional, Severe acute respiratory syndrome coronavirus 2
SARS-CoV-2 [7] = experiment: Antiviral activity against SARS-CoV-2 Omicron BA.2.12.1 infected in human A549-hACE2-TMPRSS2 cells assessed as fold reduction in viral replication pre-incubated with compound followed by viral infection measured after 72 hrs by ELISA assay relative to SARS-CoV-2 WA1; format: functional, Severe acute respiratory syndrome coronavirus 2
SARS-CoV-2 [8] = experiment: Antiviral activity against SARS-CoV-2 Omicron BQ1.1 infected in human A549-hACE2-TMPRSS2 cells assessed as reduction in viral replication pre-incubated with compound followed by viral infection measured after 72 hrs by ELISA assay; format: functional, organism-based; conditions: Severe acute respiratory syndrome coronavirus 2, Omicron BQ1.1, A549-hACE2-TMPRSS2
SARS-CoV-2 [9] = experiment: Antiviral activity against Nluc-fused SARS-CoV-2 infected in human A549-ACE2 cells assessed as reduction in cell viability incubated for 2 days by Nano-Glo reagent based analysis; format: functional, organism-based; conditions: Severe acute respiratory syndrome coronavirus 2, A549-ACE2, 48 h
SARS-CoV-2 [10] = experiment: Antiviral activity against SARS-CoV-2 Omicron BA.2.75 infected in human A549-hACE2-TMPRSS2 cells assessed as reduction in viral replication pre-incubated with compound followed by viral infection measured after 72 hrs by ELISA assay; format: functional, organism-based; conditions: Severe acute respiratory syndrome coronavirus 2, Omicron BA.2.75, A549-hACE2-TMPRSS2
SARS-CoV-2 [11] = experiment: Antiviral activity against SARS-CoV-2 Omicron BA.1 infected in human A549-hACE2-TMPRSS2 cells assessed as reduction in viral replication pre-incubated with compound followed by viral infection measured after 72 hrs by ELISA assay; format: functional, organism-based; conditions: Severe acute respiratory syndrome coronavirus 2, Omicron BA.1, A549-hACE2-TMPRSS2
SARS-CoV-2 [12] = experiment: Antiviral activity against SARS-CoV-2 Omicron XBB infected in human A549-hACE2-TMPRSS2 cells assessed as reduction in viral replication pre-incubated with compound followed by viral infection measured after 72 hrs by ELISA assay; format: functional, organism-based; conditions: Severe acute respiratory syndrome coronavirus 2, Omicron XBB
SARS-CoV-2 [13] = experiment: Antiviral activity against SARS-CoV-2 Omicron BA.4.6 infected in human A549-hACE2-TMPRSS2 cells assessed as reduction in viral replication pre-incubated with compound followed by viral infection measured after 72 hrs by ELISA assay; format: functional, organism-based; conditions: Severe acute respiratory syndrome coronavirus 2, Omicron BA.4.6, A549-hACE2-TMPRSS2
SARS-CoV-2 [14] = experiment: Antiviral activity against SARS-CoV-2 Omicron BA.2 infected in human A549-hACE2-TMPRSS2 cells assessed as reduction in viral replication pre-incubated with compound followed by viral infection measured after 72 hrs by ELISA assay; format: functional, organism-based; conditions: Severe acute respiratory syndrome coronavirus 2, Omicron BA.2, A549-hACE2-TMPRSS2
[15] = Cytotoxicity against human MT4 cells assessed as reduction in cell growth measured after 5 days by CellTiter-Glo assay; format: toxicity, cell-based; conditions: MT4 cells, time 5 day
SARS-CoV-2 [16] = experiment: Antiviral activity against SARS-CoV-2 Omicron BF.5 infected in human A549-hACE2-TMPRSS2 cells assessed as reduction in viral replication pre-incubated with compound followed by viral infection measured after 72 hrs by ELISA assay; format: functional, organism-based; conditions: Severe acute respiratory syndrome coronavirus 2, Omicron BF.5, A549-hACE2-TMPRSS2
SARS-CoV-2 [17] = experiment: Antiviral activity against SARS-CoV-2 WA1 infected in human A549-hACE2-TMPRSS2 cells assessed as reduction in viral replication pre-incubated with compound followed by viral infection measured after 72 hrs by ELISA assay; format: functional, organism-based; conditions: Severe acute respiratory syndrome coronavirus 2, WA1, A549-hACE2-TMPRSS2
SARS-CoV-2 [18] = experiment: Antiviral activity against SARS-CoV-2 Omicron BA.4 infected in human A549-hACE2-TMPRSS2 cells assessed as fold reduction in viral replication pre-incubated with compound followed by viral infection measured after 72 hrs by ELISA assay relative to SARS-CoV-2 WA1; format: functional, Severe acute respiratory syndrome coronavirus 2
SARS-CoV-2 [19] = experiment: Antiviral activity against SARS-CoV-2 Omicron BA.4 infected in human A549-hACE2-TMPRSS2 cells assessed as reduction in viral replication pre-incubated with compound followed by viral infection measured after 72 hrs by ELISA assay; format: functional, organism-based; conditions: Severe acute respiratory syndrome coronavirus 2, Omicron BA.4, A549-hACE2-TMPRSS2
SARS-CoV-2 [20] = experiment: Antiviral activity against SARS-CoV-2 Omicron BA.5 infected in human A549-hACE2-TMPRSS2 cells assessed as reduction in viral replication pre-incubated with compound followed by viral infection measured after 72 hrs by ELISA assay; format: functional, organism-based; conditions: Severe acute respiratory syndrome coronavirus 2, Omicron BA.5, A549-hACE2-TMPRSS2
Huh-7 = experiment: Cytotoxicity against human Huh-7 cells assessed as reduction in cell growth measured after 5 days by CellTiter-Glo assay; format: toxicity, cell-based; conditions: huh-7, 120 h, time 5 day
MRC5 = experiment: Cytotoxicity against human MRC5 cells assessed as reduction in cell growth measured after 5 days by CellTiter-Glo assay; format: toxicity, cell-based; conditions: mrc5, 120 h, time 5 day
[21] = Apparent permeability of the compound from apical to basolateral side in human Caco-2 cells incubated for 2 hrs by LC-MS/MS analysis; format: ADME, cell-based; conditions: Caco-2
PC-3 = experiment: Inhibition of mitochondrial respiration in human PC-3 cells at 100 uM incubated for 3 days; format: functional, cell-based; conditions: time 3.0 day

For CCC(CC)COC(=O)[C@H](C)N[P@](=O)(OC[C@H]1O[C@@](C#N)(c2ccc3c(N)ncnn23)[C@H](O)[C@@H]1O)Oc1ccccc1, the EC50 (SARS-CoV-2 [1]) was 40 nM, the EC50 (SARS-CoV-2 [2]) was 30 nM and the CC50 ([3]; a549-ace2, 48 h) was 22900 nM. For the same compound, the CC50 at 120 h [4] was over 50000 nM, the EC50 (SARS-CoV-2 [5]) was 70 nM and the “fold change (FC)” value (SARS-CoV-2 [6]) was 1.12. For the same compound, the “fold change (FC)” value (SARS-CoV-2 [7]) was 0.2, the EC50 (SARS-CoV-2 [8]) was 90 nM and the EC50 (SARS-CoV-2 [9]) was 60 nM. For the same compound, the EC50 (SARS-CoV-2 [10]) was 30 nM, the EC50 (SARS-CoV-2 [11]) was 40 nM and the EC50 (SARS-CoV-2 [12]) was 90 nM. For the same compound, the EC50 (SARS-CoV-2 [13]) was 90 nM, the EC50 (SARS-CoV-2 [14]) was 20 nM and the CC50 at 120 h [15] was 1700 nM. For the same compound, the EC50 (SARS-CoV-2 [16]) was 130 nM, the EC50 (SARS-CoV-2 [17]) was 80 nM and the “fold change (FC)” value (SARS-CoV-2 [18]) was 0.15. It also gave an EC50 (SARS-CoV-2 [19]) of 20 nM and an EC50 (SARS-CoV-2 [20]) of 110 nM.
N#C[C@@]1(c2ccc3c(N)ncnn23)O[C@H](CO)[C@@H](O)[C@H]1O [GS-441524] showed an EC50 (SARS-CoV-2 [1]) of 3250 nM, an EC50 (SARS-CoV-2 [2]) of 1790 nM and a CC50 (Huh-7) of over 89000 nM. The CC50 (MRC5) was over 89000 nM, the Papp A→B at 2 h [21] was 0.1 ×10⁻⁶ cm/s and the CC50 at 48 h [3] was over 50000 nM. The EC50 (SARS-CoV-2 [5]) was 3260 nM, the “fold change (FC)” value (SARS-CoV-2 [6]) was 1.33 and the EC50 (SARS-CoV-2 [8]) was 8770 nM. The EC50 (SARS-CoV-2 [9]) was 2490 nM, the EC50 (SARS-CoV-2 [10]) was 2580 nM and the inhibition (PC-3) was “inactive”. The EC50 (SARS-CoV-2 [11]) was 2660 nM, the EC50 (SARS-CoV-2 [12]) was 6300 nM and the EC50 (SARS-CoV-2 [13]) was 5400 nM. The EC50 (SARS-CoV-2 [14]) was 1330 nM, the CC50 at 120 h [15] was 69000 nM and the EC50 (SARS-CoV-2 [16]) was 7780 nM. For the same compound, the EC50 (SARS-CoV-2 [17]) was 4450 nM, the EC50 (SARS-CoV-2 [19]) was 1630 nM and the EC50 (SARS-CoV-2 [20]) was 4800 nM.
For CC(C)C(=O)OC[C@H]1O[C@@](C#N)(c2ccc3c(N)ncnn23)[C@H](O)[C@@H]1O [OBELDESIVIR], the EC50 (SARS-CoV-2 [1]) was 430 nM, the EC50 (SARS-CoV-2 [2]) was 440 nM and the CC50 (Huh-7) was over 44000 nM. The CC50 (MRC5) was over 44000 nM, the Papp A→B at 2 h [21] was 1 ×10⁻⁶ cm/s and the CC50 at 48 h [3] was over 50000 nM. For the same compound, the CC50 at 120 h [4] was over 50000 nM, the EC50 (SARS-CoV-2 [5]) was 740 nM and the “fold change (FC)” value (SARS-CoV-2 [6]) was 1.33. For the same compound, the “fold change (FC)” value (SARS-CoV-2 [7]) was 0.29, the EC50 (SARS-CoV-2 [8]) was 2440 nM and the EC50 (SARS-CoV-2 [9]) was 1900 nM. The EC50 (SARS-CoV-2 [10]) was 690 nM, the inhibition (PC-3) was “inactive” and the EC50 (SARS-CoV-2 [11]) was 650 nM. The EC50 (SARS-CoV-2 [12]) was 2030 nM, the EC50 (SARS-CoV-2 [13]) was 2450 nM and the EC50 (SARS-CoV-2 [14]) was 710 nM. The CC50 at 120 h [15] was over 50000 nM, the EC50 (SARS-CoV-2 [16]) was 3130 nM and the EC50 (SARS-CoV-2 [17]) was 1010 nM. The “fold change (FC)” value (SARS-CoV-2 [18]) was 0.26, the EC50 (SARS-CoV-2 [19]) was 400 nM and the EC50 (SARS-CoV-2 [20]) was 1300 nM.
